# Reference: patent publication US4542153A, “Methods for changing calcium metabolism within the cells of a mammal” (The Ohio State University Research Foundation, priority 1983, dated 1985)
# Like-named read-outs stand apart in the source and are kept apart here.
# Key:
# [1] = tested on: thoracic aorta strips contracted with norepinephrine; experiment: Vasodilator activity: norepinephrine-contracted aortic strips; format: cell-based, male Sprague-Dawley rats; details: for IC50: read-out: IC50 (mean and range of SEM) Norepinephrine; for comparative vasodilator activity, norepinephrine-treated tissue: norepinephrine-treated aortic tissue; for relaxation of the aortic tissue: norepinephrine- or KCl-treated tissue
# From the text: (§1) Pr-MDI, bu-MDI, Q-bu-MDI and the compounds of Formulae IIIA, IIIB and IVA having the two R1 groups together forming a methylene group, each R3 a methyl group and R2 an n-propyl group or n-butyl group (the compounds of Formula III are hereinafter abbreviated as sat-pr-MDI and sat-bu-MDI respectively, reference being made where necessary to the cis isomer of Formula III A or the trans isomer of Formula III B while the compounds of Formula IV are similarly referred to as cis sat-Q-pr-MDI and cis sat-Q-bu-MDI) were tested for vasodilator activity by the method of R. F. Furchgott and S. Bhadrakom, J. P. Pharmacol. Ex. Ther., 108, 129-143 (1953).
# (§2) The vasodilator activity tests were conducted on male Sprague-Dawley rats, obtained from Harlan Industries, Inc., Cumberland, Indiana. The rats, weight 250-300 g., were sacrified by cervical dislocation and a 2.5 cm. segment of the thoracic aorta was removed and rinshed in physiological buffer. Each aortic segment was cleaned of connective tissue and cut spirally two yield to strips, each 3 by 15 mm. Each strip was mounted isometrically under a tension of 1 g in a 10 ml. tissue bath thermostatically maintained at 37° C. and containing a normal physiological solution aerated with a 95% oxygen/5% carbon dioxide mixture. Forces generated by the strip were monitored using a Grass FT03 isometric transducer coupled to a Grass module 7D polygraph recorder, both the transducer and the recorder being obtained from Grass Instrument Co., of Quincy, Mass.
# (§3) After the aortic tissue had been allowed to equilibriate for 1-1.5 hours in the normal physiologic solution, tissue contraction was induced by introducing either 10^-7 M norepinephrine or 40mM potassium chloride buffer to the tissue bath.
# (§4) To avoid interference by loss of tension due to time dependent tissue fatigue, separate preliminary experiments were performed to determine the degree of tissue relaxation due to such fatigue and the value of the control tension generated by norepinephrine or potassium chloride prior to the addition of the test compounds was adjusted whenever the duration of the experiment was such that fatigue could be expected to cause more than a 6% loss of tension. […] All concentrations mentioned hereinafter represent the final concentration of the test compound after dilution in the tissue bath.
# (§5) The figures of concentration against percent response data obtained from each aortic tissue were transformed to its appropriate probit value and IC50 values were then estimated using linear regression analysis. The normal physiological solution contained 6.9 g/l of sodium chloride, 0.35 g/l of potassium chloride, 0.11 g/l of magnesium chloride hexahydrate, 0.138 g/l of sodium dihydrogen phosphate, 2.1 g/l of sodium bicarbonate, 0.01 g/l of EDTA, 0.368 g/l of calcium chloride dihydrate and 2.0 g/l of dextrose. The high potassium buffers were obtained by substituting potassium chloride for sodium chloride on an equimolar basis to maintain tonicity.
# [2] = tested on: thoracic aorta strips contracted with potassium chloride; experiment: Vasodilator activity: potassium chloride-contracted aortic strips; format: cell-based, male Sprague-Dawley rats; details: for IC50: read-out: IC50 (mean and range of SEM) KCl; for comparative vasodilator activity, potassium chloride-treated tissue: KCl-treated aortic tissue
# From the text: as §1, §2, §3, §4, §5
# [3] = tested on: calcium-induced arrhythmias in rats; experiment: Calcium-induced arrhythmias (CaCl2 injected i.v. into anesthetized rats)
# From the text: The experimental method used was that described in Lynch J. J., Rahwan R. G., Witiak D. T.: Effects of 2-substituted-3-dimethylamino-5,6-methylenedioxyindenes on calcium-inducedarrhythmias, J. Cardiovasc. Pharmacol. 3: 49-60 (1981). Male Sprague-Dawley rats weighing 180-250 grams were anesthetized with sodium pentobarbital and a cannula was inserted into the left jugular vein for drug administration. Electrocardiograph equipment was connected to the rat and the lead II was continuously monitored. The compound under test, dissolved in 5% dextrose solution, was administered into the jugular vein of anesthetized rats over a 40 second period. Ten minutes after this treatment, an acute dose of 1 ml/kg of a 10% CaCl2.2H2 O solution was injected into the jugular vein over a period of 10 seconds. The arrhythmias resulting from the calcium administration were graded according to the following criteria: (a) initial change in heart rate following calcium administration; (b) incidences of sinoatrial block, atrioventricular block, ectopic beats, and ventricular flutter and fibrillation; (c) time required for reversion to control ECG; and (d) incidence of mortality.
# [4] = tested on: chloroform anoxia arrhythmia in mice; experiment: Chloroform Anoxia Assay (chloroform-induced ventricular fibrillation); format: in vivo, Female Swiss albino mice; details: for ED50: i.p., 10 min before chloroform, table: mean values and 95% confidence limits
# Experimental: The same four compounds were tested for their ability to protect mice from chloroform anoxia by the classical chloroform inhalation procedure described in Lawson J. W.: Antiarrhythmic activity of some isoquinoline derivatives determined by a rapid screening procedure in the mouse, J. Pharmacol. Exp. Ther. 160: 22-31, (1968). In this method, chloroform inhalation leading to respiratory arrest produces ventricular fibrillation. Female Swiss albino mice procured from Laboratory Supply Company, Indianapolis, Indiana, weighing 16-22 g, were pretreated intraperitoneally with the compound under test dissolved in a 5% dextrose solution 10 minutes before exposure to chloroform in a closed container containing chloroform-saturated cotton. The mice were removed from the chloroform atmosphere immediately after respiratory arrest and the electrocardiograph lead II monitored. The ED 50 and 95% confidence limits calculated for the anti-arrhythmic agents by the standard method of Litchfield and Wilcoxon.
# mice = experiment: Toxicity Tests (intraperitoneal LD50); format: in vivo; details: i.p., table: mean values and 95% confidence limits
# isolated left atria = experiment: Effects on isolated guinea pig atria: electrically driven left atria; format: cell-based
# From the text: The effects of pr-MDI, bu-MDI and Q-bu-MDI on the mechanical and electrical behavior of isolated guinea pig atria were investigated by the method of H. Nawrath, J. Pharmacol. Exp. Ther., 16, 176-182 (1980). The compounds were investigated over the concentration range of 10^-8 to 3×10^-4 M.
# English short-haired guinea pigs, supplied by Carr Animal Supply, of Powell, Ohio, weighing 300-600 g. were killed by a blow on the head and both atria of the animal were quickly dissected out and suspended in a water-jacketed organ bath containing Krebs-Henseleit solution through which a 95% oxygen/5% carbon dioxide mixture was bubbled at 32° C. The solution contained 6.92 g/l of sodium chloride, 0.35 g/l of potassium chloride, 0.29 g/l of magnesium […] heptahydrate, 0.3 g/l of calcium chloride dihydrate, 0.16 g/l of potassium dihydrogen phosphate, 2.1 g/l of sodium bicarbonate and 2.1 g/l of dextrose. The contractile force generated by the isolated artria was recorded isometrically under a 500 mg. preload using a Narco Biosystems force transducer connected to a physiograph DMP-4B recorder, both the transducer and the recorder being obtained from E & M Instrument Co. of Houston, Texas.
# The isolated left atria were electrically driven by square wave impulses of 3 milliseconds duration at a frequency of 3 Hz. and a voltage of twice the threshold voltage, delivered by a Grass S9 stimulator obtained from Grass Instrument Co., of Quincy, Massachusetts. Two platinum electrodes were used for the stimulation, the anode being in direct contact with the atrial tissue while the cathode had the form of a ring suspended 2.5 centimeters above the anode. Before redetermination of the threshold voltage and generation of a predrug (control) frequency-force profile over the range of 1-5 Hz., an equilibriation time of one hour was allowed. The system was then re-equilibriated at 3 Hz. and twice the threshold voltage as before, then one cumulative dose-response curve of contractile force for one test compound was obtained, followed immediately by redetermination of the threshold voltage and the generation of a post-drug frequency-force profile.
# A paired Student's t-test was used to compare predrug and postdrug threshold voltages for each left atrial preparations as well as to compare developed tension at each frequency in the profile of each left atrial preparation. P values of less than 0.05 were considered statistically significant.
# [5] = tested acutely and subchronically; earlier published work; cited from earlier work
# [6] = rat aorta contracted with 10^-7 M norepinephrine
# [7] = rat aorta contracted with 40 mM potassium chloride
structure (smiles),measurement,setting,value
CCCC[C@@H]1Cc2cc3c(cc2[C@@H]1[N+](C)(C)C)OCO3 (relative stereo) [cis sat-Q-bu-MDI],IC50,[1]; [6],281 µM
same,IC50,[2]; [7],175 µM
"CCC[C@@H]1Cc2cc3c(cc2[C@@H]1[N+](C)(C)C)OCO3 (relative stereo) [cis sat-Q-pr-MDI, cis-2-propyl-5,6-methylenedioxyindane-1-trimethylammonium iodide]",IC50,[1]; [6],1020 µM
same,IC50,[2]; [7],871 µM
"CCCC[C@@H]1Cc2cc3c(cc2[C@@H]1N(C)C)OCO3 (relative stereo) [cis sat-bu-MDI, 2-butyl-5,6-methylenedioxyindane-1-dimethylammonium chloride]",IC50,[1]; Rattus norvegicus,37.9 µM
same,"comparative vasodilator activity, norepinephrine-treated tissue",[1],greater activity on norepinephrine treated tissue than the corresponding butyl compound of Formula I
same,"comparative vasodilator activity, potassium chloride-treated tissue",[2],substantially the same activity
same,IC50,[2]; Rattus norvegicus,17.4 µM
"CCC[C@@H]1Cc2cc3c(cc2[C@@H]1N(C)C)OCO3 (relative stereo) [cis sat-pr-MDI, 2-propyl-5,6-methylenedioxyindane-1-dimethylammonium chloride]",IC50,[1]; Rattus norvegicus,59.4 µM
same,"comparative vasodilator activity, norepinephrine-treated tissue",[1],substantially the same activity as the corresponding unsaturated propyl compound of Formula I
same,"comparative vasodilator activity, potassium chloride-treated tissue",[2],slightly lower activity
same,IC50,[2]; Rattus norvegicus,30 µM
CCCC[C@H]1Cc2cc3c(cc2[C@@H]1N(C)C)OCO3 (relative stereo) [trans sat-bu-MDI],IC50,[1]; Rattus norvegicus,151 to 173 µM
same,IC50,[2]; Rattus norvegicus,31.1 µM
"CCC[C@H]1Cc2cc3c(cc2[C@@H]1N(C)C)OCO3 (relative stereo) [trans sat-pr-MDI, 2-propyl-5,6-methylenedioxyindane-1-dimethylammonium chloride]",IC50,[1]; Rattus norvegicus,383 µM
same,IC50,[2]; Rattus norvegicus,98.9 µM
"CCCC1=Cc2cc3c(cc2C1[N+](C)(C)C)OCO3.[I-] (stereo not drawn) [Q-pr-MDI, 2-propyl-5,6-methylenedioxyindene-1-trimethylammonium iodide]",relaxation of the aortic tissue,[1],relaxed the aortic tissue
same,"comparative vasodilator activity, norepinephrine-treated tissue",[1],less active in vitro than their tertiary analogs
same,IC50,[1]; [6],382 µM
same,IC50,[2]; [7],547 µM
"NC[C@H](O)c1ccc(O)c(O)c1 [norepinephrine, reference compound]",control tension as percent of the maximum inducible contraction,[1]; 10^-7 M norepinephrine,85.1%
same,control tension generated,"[1]; 10^-7 M norepinephrine, rat aortic strip",0.98 ± 0.03 g
"[Cl-].[K+] [potassium chloride, reference compound]",control tension as percent of the maximum inducible contraction,[2]; 40 mM potassium chloride,84.2%
same,control tension generated,"[2]; 40 mM potassium chloride, rat aortic strip",0.89 ± 0.05 g
"CCCC1=Cc2cc3c(cc2C1N(C)C)OCO3.Cl (stereo not drawn) [pr-MDI, 2-propyl-5,6-methylenedioxyindene-1-dimethylammonium chloride, reference compound]",potency and safety against calcium-induced arrhythmia versus verapamil,[3]; earlier work of applicants,more potent and safer then verapamil
same,concentration effective against calcium-induced arrhythmias,"[3]; i.v., 10 min before CaCl2",3.75 mg/kg
same,deleterious side effects,"[3]; i.v., Q-bu-MDI at 0.5 mg/kg, pr-MDI and bu-MDI at 3.75 mg/kg",without deleterious side effects
same,Therapeutic Index (LD50/ED50),"[4]; ED50 from chloroform anoxia, LD50 i.p.",2.7
same,potency against chloroform/anoxia-induced arrhythmia versus quinidine,[4]; earlier work of applicants,as potent as quinidine
same,ED50,"[4]; n = 40, 10 min",68 mg/kg
same,ED50,"[4]; n = 40, listed as Pr--MDI, 10 min",68.0 mg/kg
same,Antiarrhythmic Potency,"[4]; quinidine = 1.00, chloroform anoxia",0.99
same,LD50,mice,185 mg/kg
same,effect on frequency-force profile/relation of the stimulated left atrium,isolated left atria; 3×10^-4 M,virtually identical to that of the butyl homolog
same,overall effect on mechanical and electrical behavior of atria,isolated left atria; 10^-8 to 3×10^-4 M,generally similar to those of bu-MDI
same,relaxation of the aortic tissue,[1],relaxed the aortic tissue
same,"comparative vasodilator activity, norepinephrine-treated tissue",[1],considerably more active than Q-pr-MDI
same,IC50,[1]; [6],78.2 µM
same,IC50,[2]; [7],21.4 µM
same,toxicity,[5],remarkable lack of toxicity
"C=C[C@H]1C[N@@]2CC[C@H]1C[C@@H]2[C@@H](O)c1ccnc2ccc(OC)cc12 [quinidine, reference compound]",effect on the S wave,[3]; 8 mg/kg (minimum effective concentration),severely deepened the S wave
same,ED50,"[4]; Mus musculus, ip, 10 min, n = 40, read-out: ED50",67 mg/kg
